Active and inactive are the calls of the source. The calls are words filed in the database; no cut-off is given here.
Assays:
[1] = system: BMDM; test: Induction of IL-1beta production in C57BL/6 mouse BMDM cells at 2 ug/ml incubated for 48 hrs in presence of 1 nmol [(2R,3S,4S,5R,6R)-3,4,5-trihydroxy-6-[(3R,4S,5S,6R)-3,4,5-trihydroxy-6-[(4-octadecoxybenzoyl)oxymethyl]tetrahydropyran-2-yl]oxy-tetrahydropyran-2-yl]methyl 4-octadecoxybenzoate by ELISA; format: functional, cell-based; conditions: dose 2.0 µg/ml
[2] = system: HEK293; test: Induction of IL-8 production in HEK293 cells expressing mouse NOD2 at 10 to 100 uM incubated for 20 hrs in presence of 5 to 50 uM [(2R,3S,4S,5R,6R)-3,4,5-trihydroxy-6-[(3R,4S,5S,6R)-3,4,5-trihydroxy-6-[(4-octadecoxybenzoyl)oxymethyl]tetrahydropyran-2-yl]oxy-tetrahydropyran-2-yl]methyl 4-octadecoxybenzoate by ELISA; format: functional, cell-based; conditions: Homo sapiens, dose 10-100 µM
[3] = system: Splenocyte; test: Improvement in memory response in ovalbumin immunized C57BL/6 mouse splenocytes assessed as increase in IFNgamma level incubated for 72 hrs in presence of [(2R,3S,4S,5R,6R)-3,4,5-trihydroxy-6-[(3R,4S,5S,6R)-3,4,5-trihydroxy-6-[(4-octadecoxybenzoyl)oxymethyl]tetrahydropyran-2-yl]oxy-tetrahydropyran-2-yl]methyl 4-octadecoxybenzoate by ELISA; format: functional, cell-based
[4] = system: Splenocyte; test: Improvement in memory response in ovalbumin immunized C57BL/6 mouse splenocytes assessed as increase in IFNgamma level incubated for 72 hrs in presence of 6,6'-Di-0-(2,4-bis(octadecyloxy)benzoyl)-alpha,alpha'-D-trehalose by ELISA; format: functional, cell-based
[5] = system: BMDM; test: Induction of IL-23 production in C57BL/6 mouse BMDM cells at 2 ug/ml incubated for 48 hrs in presence of 1 nmol [(2R,3S,4S,5R,6R)-3,4,5-trihydroxy-6-[(3R,4S,5S,6R)-3,4,5-trihydroxy-6-[(4-octadecoxybenzoyl)oxymethyl]tetrahydropyran-2-yl]oxy-tetrahydropyran-2-yl]methyl 4-octadecoxybenzoate by ELISA; format: functional, cell-based; conditions: dose 2.0 µg/ml
[6] = system: HEK293; test: Induction of IL-8 production in HEK293 cells expressing mouse NOD2 at 10 to 100 uM incubated for 20 hrs in presence of 5 to 50 uM 6,6'-Di-0-(2,4-bis(octadecyloxy)benzoyl)-alpha,alpha'-D-trehalose by ELISA; format: functional, cell-based; conditions: Homo sapiens, dose 10-100 µM
[7] = Toxicity in ovalbumin immunized C57BL/6 mouse assessed as reactogenicity boosted with OVA at 1 week and measured after week 3, 4, 5 and 6 in presence of 6,6'-Di-0-(2,4-bis(octadecyloxy)benzoyl)-alpha,alpha'-D-trehalose; conditions: in vivo, 1008 h, time 6 weeks
[8] = organism: Mus musculus; test: Adjuvanticity in ovalbumin immunized C57BL/6 mouse assessed as increase in anti-OVA IgG titers boosted with OVA at 1 week and measured after week 3, 4, 5 and 6 in presence of 6,6'-Di-0-(2,4-bis(octadecyloxy)benzoyl)-alpha,alpha'-D-trehalose by ELISA; format: functional, organism-based; conditions: time 6.0 weeks
[9] = system: BMDM; test: Induction of MIP-2 production in C57BL/6 mouse BMDM cells at 1 nmol per well incubated for 24 hrs by ELISA; format: functional, cell-based
[10] = system: BMDM; test: Induction of IL-1beta production in C57BL/6 mouse BMDM cells at 1 nmol per well incubated for 24 hrs by ELISA; format: functional, cell-based
[11] = system: BMDM; test: Induction of IL-6 production in C57BL/6 mouse BMDM cells at 1 nmol per well incubated for 24 hrs by ELISA; format: functional, cell-based
[12] = system: HEK293; test: Induction of IL-8 production in HEK293 cells expressing mouse NOD2 at 5 to 50 uM incubated for 20 hrs by ELISA; format: functional, cell-based; conditions: Homo sapiens, dose 5-50 µM
[13] = system: BMDM; test: Induction of IL-6 production in C57BL/6 mouse BMDM at 1 nmol incubated for 48 hrs by ELISA; format: functional, cell-based
[14] = Toxicity in ovalbumin immunized C57BL/6 mouse assessed as appearance of inflamed skin at tail base at 40 nmol measured after 1 week post immunization; format: tissue-based; conditions: in vivo, 168 h, time 1 weeks
[15] = system: Splenocyte; test: Improvement in memory response in ovalbumin immunized C57BL/6 mouse splenocytes assessed as increase in IFNgamma level incubated for 72 hrs by ELISA; format: functional, cell-based
[16] = system: BMDM; test: Induction of IL-23 production in C57BL/6 mouse BMDM at 1 nmol incubated for 48 hrs by ELISA; format: functional, cell-based
[17] = system: BMDM; test: Induction of IL-1beta production in C57BL/6 mouse BMDM at 1 nmol incubated for 48 hrs by ELISA; format: functional, cell-based
[18] = Toxicity in ovalbumin immunized C57BL/6 mouse assessed as body weight loss at 40 nmol boosted with OVA at 1 week and measured after week 3, 4, 5 and 6; conditions: in vivo, 1008 h, time 6 weeks
[19] = system: 2B4; test: Induction of NFAT-GFP signal in mouse 2B4 reporter cells expressing mMincle + FcRgamma at 0.1 to 1 nmol incubated for 18 hrs by flow cytometry analysis; format: functional, cell-based; conditions: dose 0.1-1 nmol
[20] = organism: Mus musculus; test: Adjuvanticity in ovalbumin immunized C57BL/6 mouse assessed as increase in anti-OVA IgG titers at 40 nmol boosted with OVA at 1 week and measured after week 3, 4, 5 by ELISA; format: functional, organism-based; conditions: time 5.0 weeks
[21] = system: HEK293; test: Induction of IL-8 production in HEK293 cells expressing mouse NOD2 at 5 to 50 uM incubated for 20 hrs in presence of 10 to 100 uM (4R)-4-[[(2S)-2-[[(2R)-2-[(3R,4R,5S,6R)-3-acetamido-2,5-dihydroxy-6-(hydroxymethyl)tetrahydropyran-4-yl]oxypropanoyl]amino]propanoyl]amino]-5-amino-5-oxo-pentanoic acid by ELISA; format: functional, cell-based; conditions: Homo sapiens, dose 5-50 µM
[22] = organism: Mus musculus; test: Adjuvanticity in ovalbumin immunized C57BL/6 mouse assessed as increase in anti-OVA IgG titers boosted with OVA at 1 week and measured after week 3, 4, 5 and 6 in presence of (4R)-4-[[(2S)-2-[[(2R)-2-[(3R,4R,5S,6R)-3-acetamido-2,5-dihydroxy-6-(hydroxymethyl)tetrahydropyran-4-yl]oxypropanoyl]amino]propanoyl]amino]-5-amino-5-oxo-pentanoic acid by ELISA; format: functional, organism-based; conditions: time 6.0 weeks
[23] = Toxicity in ovalbumin immunized C57BL/6 mouse assessed as reactogenicity boosted with OVA at 1 week and measured after week 3, 4, 5 and 6 in presence of (4R)-4-[[(2S)-2-[[(2R)-2-[(3R,4R,5S,6R)-3-acetamido-2,5-dihydroxy-6-(hydroxymethyl)tetrahydropyran-4-yl]oxypropanoyl]amino]propanoyl]amino]-5-amino-5-oxo-pentanoic acid; conditions: in vivo, 1008 h, time 6 weeks
[24] = system: Splenocyte; test: Improvement in memory response in ovalbumin immunized C57BL/6 mouse splenocytes assessed as increase in IFNgamma level incubated for 72 hrs in presence of (4R)-4-[[(2S)-2-[[(2R)-2-[(3R,4R,5S,6R)-3-acetamido-2,5-dihydroxy-6-(hydroxymethyl)tetrahydropyran-4-yl]oxypropanoyl]amino]propanoyl]amino]-5-amino-5-oxo-pentanoic acid by ELISA; format: functional, cell-based

SMILES: CC(=O)N[C@@H]1[C@@H](O[C@H](C)C(=O)N[C@@H](C)C(=O)N[C@H](CCC(=O)O)C(N)=O)[C@H](O)[C@@H](CO)O[C@H]1O [MURAMYL DIPEPTIDE]
- Activity [1]: Active
- Activity [2]: Active
- Activity [3]: Active
- Activity [4]: inactive
- Activity [5]: Active
- Activity [6]: Active
- Activity [7]: Toxic
- Activity [8]: Active

SMILES: CCCCCCCCCCCCCCCCCCOc1ccc(C(=O)OC[C@H]2O[C@H](O[C@H]3O[C@H](COC(=O)c4ccc(OCCCCCCCCCCCCCCCCCC)cc4OCc4cn(CCCN(OC)[C@@H]5O[C@H](CO)[C@@H](O)[C@H](O)[C@H]5NC(C)=O)nn4)[C@@H](O)[C@H](O)[C@H]3O)[C@H](O)[C@@H](O)[C@@H]2O)c(OCc2cn(CCCN(OC)[C@@H]3O[C@H](CO)[C@@H](O)[C@H](O)[C@H]3NC(C)=O)nn2)c1
- Activity [9]: inactive
- Activity [10]: inactive
- Activity [11]: inactive

SMILES: CCCCCCCCCCCCCCCCCCCCCC(=O)OC[C@@H]1O[C@H](O[C@H]2O[C@H](COC(=O)CCCCCCCCCCCCCCCCCCCCC)[C@@H](O)[C@H](O)[C@H]2O)[C@@H](O)[C@H](O)[C@H]1O
- Activity [12]: inactive

SMILES: CCCCCCCCCCCCCCCCCCCOc1ccc(C(=O)OC[C@H]2O[C@H](O[C@H]3O[C@H](COC(=O)c4ccc(OCCCCCCCCCCCCCCCCCC)cc4OCCCCCCCCCCCCCCCCCc4cn(CCCCN(OC)[C@@H]5O[C@H](CO)[C@@H](O)[C@H](O[C@H](C)C(=O)N[C@@H](C)C(=O)N[C@H](CCC(=O)O)C(N)=O)[C@H]5NC(C)=O)nn4)[C@@H](O)[C@H](O)[C@H]3O)[C@H](O)[C@@H](O)[C@@H]2O)c(OCCCCCCCCCCCCCCCCCc2cn(CCCCN(OC)[C@@H]3O[C@H](CO)[C@@H](O)[C@H](O[C@H](C)C(=O)N[C@@H](C)C(=O)N[C@H](CCC(=O)O)C(N)=O)[C@H]3NC(C)=O)nn2)c1
- Activity [13]: Active
- Activity [14]: Toxic
- Activity [15]: Active
- Activity [12]: Active
- Activity [16]: Active
- Activity [17]: Active
- Activity [18]: Non-Toxic
- Activity [19]: Active
- Activity [20]: Active

SMILES: CCCCCCCCCCCCCCCCCCOc1ccc(C(=O)OC[C@H]2O[C@H](O[C@H]3O[C@H](COC(=O)c4ccc(OCCCCCCCCCCCCCCCCCC)cc4OCCCCCCCCCCCCCCCCCC)[C@@H](O)[C@H](O)[C@H]3O)[C@H](O)[C@@H](O)[C@@H]2O)c(OCCCCCCCCCCCCCCCCCC)c1
- Activity [21]: Active
- Activity [22]: Active
- Activity [23]: Toxic
- Activity [12]: inactive
- Activity [24]: inactive
- Activity [19]: Active
